Measured values as given in patent US20250367166A1, “NEXT GENERATION DIPROVOCIMS THAT ACTIVATE THE INNATE AND ADAPTIVE IMMUNE RESPONSE” (The Scripps Research Institute, priority 2022, published 2025).
Where two headings read alike, the source gives them in different places.

Key:
TLR1/TLR2 [1] = biological target: TLR1/TLR2 (Homo sapiens, UniProt O60603+Q15399); assay: TNF-α release from PMA-differentiated human THP-1 cells (ELISA); conditions: for EC50: read-out: EC50 (nM) (THP-1): EC50 TNF-α release from human THP-1 cells; for Emax: THP-1, 4 h, read-out: Efficacy (magnitude) of response versus diprovocim-1 (100%), THP-1;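 as to all read-outs here: cells exposed to graded compound concentrations for 4 h, TNF-α quantified in supernatant, LPS as positive and DMSO as negative control, values are duplicate means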
Chain of TLR1/TLR2 (Homo sapiens, UniProt O60603+Q15399) (Q15399 25-786): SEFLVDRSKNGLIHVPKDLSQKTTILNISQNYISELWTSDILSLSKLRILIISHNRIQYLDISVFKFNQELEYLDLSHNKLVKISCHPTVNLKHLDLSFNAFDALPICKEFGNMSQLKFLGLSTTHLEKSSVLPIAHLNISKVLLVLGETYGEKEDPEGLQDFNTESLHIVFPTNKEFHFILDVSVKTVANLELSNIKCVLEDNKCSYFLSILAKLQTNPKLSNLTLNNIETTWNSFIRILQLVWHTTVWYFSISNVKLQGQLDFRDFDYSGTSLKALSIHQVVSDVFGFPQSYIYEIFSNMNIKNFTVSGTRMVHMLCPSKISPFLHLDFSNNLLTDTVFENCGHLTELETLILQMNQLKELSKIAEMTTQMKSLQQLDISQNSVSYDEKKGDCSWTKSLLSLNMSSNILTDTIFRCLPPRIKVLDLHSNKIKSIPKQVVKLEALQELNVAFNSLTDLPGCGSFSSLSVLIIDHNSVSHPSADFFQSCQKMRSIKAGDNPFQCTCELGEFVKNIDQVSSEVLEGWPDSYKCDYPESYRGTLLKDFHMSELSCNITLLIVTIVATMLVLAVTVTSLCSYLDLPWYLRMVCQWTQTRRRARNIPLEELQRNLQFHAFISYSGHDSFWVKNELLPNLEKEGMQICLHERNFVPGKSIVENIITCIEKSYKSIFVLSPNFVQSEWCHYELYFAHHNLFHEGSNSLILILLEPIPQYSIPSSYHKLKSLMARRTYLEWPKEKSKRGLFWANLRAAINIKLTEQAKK
Chain of TLR1/TLR2 (Homo sapiens, UniProt O60603+Q15399) (O60603 21-784): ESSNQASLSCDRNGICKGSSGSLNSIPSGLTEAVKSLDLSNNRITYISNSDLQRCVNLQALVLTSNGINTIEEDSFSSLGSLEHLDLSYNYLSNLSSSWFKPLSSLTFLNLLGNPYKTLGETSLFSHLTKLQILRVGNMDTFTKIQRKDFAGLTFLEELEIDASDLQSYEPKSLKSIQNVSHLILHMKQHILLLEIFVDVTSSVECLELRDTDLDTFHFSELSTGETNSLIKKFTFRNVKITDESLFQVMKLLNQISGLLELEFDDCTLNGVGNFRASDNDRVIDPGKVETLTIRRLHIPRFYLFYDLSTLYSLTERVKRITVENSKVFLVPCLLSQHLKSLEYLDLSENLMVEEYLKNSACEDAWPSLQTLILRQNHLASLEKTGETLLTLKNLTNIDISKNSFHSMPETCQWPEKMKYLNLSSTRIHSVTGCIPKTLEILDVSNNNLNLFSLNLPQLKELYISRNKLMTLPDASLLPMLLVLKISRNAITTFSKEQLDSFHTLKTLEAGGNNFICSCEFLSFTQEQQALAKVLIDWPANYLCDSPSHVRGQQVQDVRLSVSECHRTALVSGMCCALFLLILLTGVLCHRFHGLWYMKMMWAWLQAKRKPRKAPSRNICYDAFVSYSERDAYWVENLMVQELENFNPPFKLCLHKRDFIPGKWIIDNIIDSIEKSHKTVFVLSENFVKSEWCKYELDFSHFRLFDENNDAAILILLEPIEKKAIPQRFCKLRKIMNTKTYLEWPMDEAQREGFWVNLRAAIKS

TLR1/TLR2 [2] = biological target: TLR1/TLR2 (Mus musculus, UniProt Q9EPQ1+Q9QUN7); assay: TNF-α release from thioglycolate-elicited mouse peritoneal macrophages (ELISA); conditions: for Emax: 4 h, read-out: Efficacy (magnitude) of response versus diprovocim-1 (100%), mouse macrophages
Chain of TLR1/TLR2 (Mus musculus, UniProt Q9EPQ1+Q9QUN7) (Q9EPQ1 26-795): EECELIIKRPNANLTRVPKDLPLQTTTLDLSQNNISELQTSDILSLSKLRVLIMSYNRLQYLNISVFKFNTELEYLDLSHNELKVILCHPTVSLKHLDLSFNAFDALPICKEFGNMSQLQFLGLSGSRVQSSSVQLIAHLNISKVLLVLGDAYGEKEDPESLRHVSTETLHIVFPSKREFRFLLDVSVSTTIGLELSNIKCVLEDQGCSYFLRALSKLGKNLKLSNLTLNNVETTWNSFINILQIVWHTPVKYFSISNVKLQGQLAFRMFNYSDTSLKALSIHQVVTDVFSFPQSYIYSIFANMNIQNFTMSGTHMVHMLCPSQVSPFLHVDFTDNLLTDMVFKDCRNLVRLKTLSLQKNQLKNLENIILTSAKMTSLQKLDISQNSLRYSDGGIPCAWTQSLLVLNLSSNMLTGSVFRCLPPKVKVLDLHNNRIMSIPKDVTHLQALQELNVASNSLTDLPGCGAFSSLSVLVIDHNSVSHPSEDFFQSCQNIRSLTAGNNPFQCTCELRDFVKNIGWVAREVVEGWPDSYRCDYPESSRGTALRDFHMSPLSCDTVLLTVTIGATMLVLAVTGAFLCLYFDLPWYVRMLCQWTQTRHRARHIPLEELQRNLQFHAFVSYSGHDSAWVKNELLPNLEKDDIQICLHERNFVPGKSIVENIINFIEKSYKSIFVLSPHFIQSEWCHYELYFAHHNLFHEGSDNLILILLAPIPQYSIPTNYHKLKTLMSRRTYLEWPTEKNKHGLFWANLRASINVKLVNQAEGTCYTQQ
Chain of TLR1/TLR2 (Mus musculus, UniProt Q9EPQ1+Q9QUN7) (Q9QUN7 25-784): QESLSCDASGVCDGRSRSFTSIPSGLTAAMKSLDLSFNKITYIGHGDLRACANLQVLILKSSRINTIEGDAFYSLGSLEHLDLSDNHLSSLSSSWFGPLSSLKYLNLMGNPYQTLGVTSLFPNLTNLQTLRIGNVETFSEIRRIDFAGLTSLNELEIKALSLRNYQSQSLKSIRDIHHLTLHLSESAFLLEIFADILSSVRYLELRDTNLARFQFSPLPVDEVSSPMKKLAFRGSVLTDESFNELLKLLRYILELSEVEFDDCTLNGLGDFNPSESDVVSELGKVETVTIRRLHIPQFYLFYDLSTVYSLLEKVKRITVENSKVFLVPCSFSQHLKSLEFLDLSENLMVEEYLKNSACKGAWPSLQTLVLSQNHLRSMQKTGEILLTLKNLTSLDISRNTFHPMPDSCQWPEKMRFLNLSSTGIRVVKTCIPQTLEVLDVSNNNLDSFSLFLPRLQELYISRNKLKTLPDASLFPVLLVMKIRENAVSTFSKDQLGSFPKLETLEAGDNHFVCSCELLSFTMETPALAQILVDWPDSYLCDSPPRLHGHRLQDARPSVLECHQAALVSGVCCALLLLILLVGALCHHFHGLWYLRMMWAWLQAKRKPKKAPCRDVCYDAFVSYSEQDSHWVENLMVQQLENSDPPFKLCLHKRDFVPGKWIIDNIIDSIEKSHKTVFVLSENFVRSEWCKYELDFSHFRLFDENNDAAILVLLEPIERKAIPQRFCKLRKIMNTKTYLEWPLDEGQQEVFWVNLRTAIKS

[3] = read-out: EC50 (nM) (mouse): EC50 TNF-α release from mouse macrophages, Table 1
[4] = read-out: EC50 (nM) (mouse): EC50 TNF-α release from mouse macrophages, Table 3

Row | SMILES | EC50 (TLR1/TLR2 [1]; Table 1) | EC50 (TLR1/TLR2 [2]; [3]) | Emax (TLR1/TLR2 [1]) | Emax (TLR1/TLR2 [2]) | EC50 (TLR1/TLR2 [1]; Table 2) | EC50 (TLR1/TLR2 [2]) | EC50 (TLR1/TLR2 [1]; Table 3) | EC50 (TLR1/TLR2 [2]; [4])
1 | O=C(NCCc1ccccc1)[C@@H]1CN(C(=O)c2ccc(C(=O)N3C[C@@H](C(=O)N[C@H]4C[C@@H]4c4ccccc4)[C@H](C(=O)N[C@H]4C[C@@H]4c4ccccc4)C3)cc2)C[C@H]1C(=O)N[C@H]1C[C@@H]1c1ccccc1 [Compound 23, (3S,4S)-1-(4-((3S,4S)-3,4-Bis(((1S,2R)-2-phenyl-cyclopropyl)carbamoyl)pyrrolidine-1-carbonyl)-benzoyl)-N^3-phenethyl-N^4-((1S,2R)-2-phenylcyclo-propyl)pyrrolidine-3,4-dicarboxamide] | 1.5 nM | 30 nM |  |  |  |  |  | 
2 | O=C(NCc1ccc(F)cc1)[C@@H]1CN(C(=O)c2ccc(C(=O)N3C[C@@H](C(=O)N[C@H]4C[C@@H]4c4ccccc4)[C@H](C(=O)N[C@H]4C[C@@H]4c4ccccc4)C3)cc2)C[C@H]1C(=O)N[C@H]1C[C@@H]1c1ccccc1 [Compound 24, (3S,4S)-1-(4-((3S,4S)-3,4-Bis(((1S,2R)-2-phenylcyclo-propyl)carbamoyl)pyrrolidine-1-carbonyl)-benzoyl)-N^3-(4-fluorobenzyl)-N^4-((1S,2R)-2-phenylcyclopropyl)-pyrrolidine-3,4-dicarboxamide] | 2 nM | 30 nM |  |  |  |  |  | 
3 | O=C(NCCc1ccc(F)cc1)[C@@H]1CN(C(=O)c2ccc(C(=O)N3C[C@@H](C(=O)N[C@H]4C[C@@H]4c4ccccc4)[C@H](C(=O)N[C@H]4C[C@@H]4c4ccccc4)C3)cc2)C[C@H]1C(=O)N[C@H]1C[C@@H]1c1ccccc1 [Compound 25, (3S,4S)-1-(4-((3S,4S)-3,4-Bis(((1S,2R)-2-phenylcyclo-propyl)carbamoyl)pyrrolidine-1-carbonyl)-benzoyl)-N^3-(4-fluorophenethyl)-N^4-((1S,2R)-2-phenylcyclopropyl)-pyrrolidine-3,4-dicarboxamide] | 0.5 nM | 1 nM |  |  |  |  |  | 
4 | O=C(NCCCCCCCCc1ccc(O)cc1)[C@@H]1CN(C(=O)c2ccc(C(=O)N3C[C@@H](C(=O)N[C@H]4C[C@@H]4c4ccccc4)[C@H](C(=O)N[C@H]4C[C@@H]4c4ccccc4)C3)cc2)C[C@H]1C(=O)N[C@H]1C[C@@H]1c1ccccc1 [Compound 26, (3S,4S)-1-(4-((3S,4S)-3,4-Bis(((1S,2R)-2-phenylcyclo-propyl)carbamoyl)pyrrolidine-1-carbonyl)-benzoyl)-N^3-(8-(4-hydroxyphenyl)octyl)-N^4-((1S,2R)-2-phenylcyclo-propyl)pyrrolidine-3,4-dicarboxamide] | 0.15 nM | 2.6 nM | 90% | 380% |  |  |  | 
5 | Nc1ccc(CCCCCCCCNC(=O)[C@@H]2CN(C(=O)c3ccc(C(=O)N4C[C@@H](C(=O)N[C@H]5C[C@@H]5c5ccccc5)[C@H](C(=O)N[C@H]5C[C@@H]5c5ccccc5)C4)cc3)C[C@H]2C(=O)N[C@H]2C[C@@H]2c2ccccc2)cc1 [Compound 27, (3S,4S)—N-(8-(4-Aminophenyl)octyl)-1-(4-((3S,4S)-3,4-bis(((1S,2R)-2-phenylcyclopropyl)carbamoyl)-pyrrolidine-1-carbonyl)benzoyl)-N^4-((1S,2R)-2-phenyl-cyclopropyl)-pyrrolidine-3,4-dicarboxamide] | 0.3 nM | 6 nM | 100% | 250% |  |  |  | 
6 | O=C(NCCOCCOCCOCCO)[C@@H]1CN(C(=O)c2ccc(C(=O)N3C[C@@H](C(=O)N[C@H]4C[C@@H]4c4ccccc4)[C@H](C(=O)N[C@H]4C[C@@H]4c4ccccc4)C3)cc2)C[C@H]1C(=O)N[C@H]1C[C@@H]1c1ccccc1 [Compound 30, (3S,4S)-1-(4-((3S,4S)-3,4-Bis(((1S,2R)-2-phenyl-cyclopropyl)carbamoyl)pyrrolidine-1-carbonyl)-benzoyl)-N^3-(2-(2-(2-(2-hydroxyethoxy)ethoxy)ethoxy)-ethyl)-N^4-((1S,2R)-2-phenylcyclopropyl)-pyrrolidine-3,4-dicarboxamide] |  |  |  |  | 2000 nM | > 5000 nM |  | 
7 | O=C(O)CCOCCOCCOCCNC(=O)[C@@H]1CN(C(=O)c2ccc(C(=O)N3C[C@@H](C(=O)N[C@H]4C[C@@H]4c4ccccc4)[C@H](C(=O)N[C@H]4C[C@@H]4c4ccccc4)C3)cc2)C[C@H]1C(=O)N[C@H]1C[C@@H]1c1ccccc1 [Compound 31, 1-((3S,4S)-1-(4-((3S,4S)-3,4-Bis(((1S,2R)-2-phenylcyclopropyl)carbamoyl)pyrrolidine-1-carbonyl)benzoyl)-4-(((1S,2R)-2-phenylcyclopropyl)-carbamoyl)pyrrolidin-3-yl)-1-oxo-5,8,11-trioxa-2-azatetradecan-14-oic acid] |  |  |  |  | 100 nM | > 5000 nM |  | 
8 | CC(=O)OCCCCCCCCCCCCNC(=O)[C@@H]1CN(C(=O)c2ccc(C(=O)N3C[C@@H](C(=O)N[C@H]4C[C@@H]4c4ccccc4)[C@H](C(=O)N[C@H]4C[C@@H]4c4ccccc4)C3)cc2)C[C@H]1C(=O)N[C@H]1C[C@@H]1c1ccccc1 [Compound 32, 12-((3S,4S)-1-(4-((3S,4S)-3,4-Bis(((1S,2R)-2-phenyl-cyclopropyl)carbamoyl)pyrrolidine-1-carbonyl)benzoyl)-4-(((1S,2R)-2-phenylcyclopropyl)carbamoyl)pyrrolidine-3-carboxamido)dodecyl acetate] |  |  | 130% | 140% |  |  | 0.14 nM | 1.5 nM
9 | N#CCC(=O)OCCCCCCCCCCCCNC(=O)[C@@H]1CN(C(=O)c2ccc(C(=O)N3C[C@@H](C(=O)N[C@H]4C[C@@H]4c4ccccc4)[C@H](C(=O)N[C@H]4C[C@@H]4c4ccccc4)C3)cc2)C[C@H]1C(=O)N[C@H]1C[C@@H]1c1ccccc1 [Compound 33, 12-((3S,4S)-1-(4-((3S,4S)-3,4-Bis(((1S,2R)-2-phenylcyclopropyl)carbamoyl)pyrrolidine-1-carbonyl)benzoyl)-4-(((1S,2R)-2-phenylcyclopropyl)-carbamoyl)pyrrolidine-3-carboxamido)dodecyl 2-cyanoacetate] |  |  | 100% | 120% |  |  | 0.25 nM | 4.5 nM
10 | [N-]=[N+]=NCC(=O)OCCCCCCCCCCCCNC(=O)[C@@H]1CN(C(=O)c2ccc(C(=O)N3C[C@@H](C(=O)N[C@H]4C[C@@H]4c4ccccc4)[C@H](C(=O)N[C@H]4C[C@@H]4c4ccccc4)C3)cc2)C[C@H]1C(=O)N[C@H]1C[C@@H]1c1ccccc1 [Compound 34, 12-((3S,4S)-1-(4-((3S,4S)-3,4-Bis(((1S,2R)-2-phenylcyclopropyl)carbamoyl)pyrrolidine-1-carbonyl)-benzoyl)-4-(((1S,2R)-2-phenylcyclopropyl)carbamoyl)-pyrrolidine-3-carboxamido)dodecyl 2-azidoacetate] |  |  | 100% | 120% |  |  | 0.21 nM | 3.7 nM
11 | O=C(CNC(=O)OCc1ccccc1)OCCCCCCCCCCCCNC(=O)[C@@H]1CN(C(=O)c2ccc(C(=O)N3C[C@@H](C(=O)N[C@H]4C[C@@H]4c4ccccc4)[C@H](C(=O)N[C@H]4C[C@@H]4c4ccccc4)C3)cc2)C[C@H]1C(=O)N[C@H]1C[C@@H]1c1ccccc1 [Compound 36, 12-((3S,4S)-1-(4-((3S,4S)-3,4-Bis(((1S,2R)-2-phenyl-cyclopropyl)carbamoyl)pyrrolidine-1-carbonyl)-benzoyl)-4-(((1S,2R)-2-phenylcyclopropyl)carbamoyl)-pyrrolidine-3-carboxamido)-dodecyl 2-(((benzyloxy)carbonyl)-amino)acetate] |  |  | 100% | 410% |  |  | 0.1 nM | 40 nM
12 | O=C(CNC(=O)OCC(Cl)(Cl)Cl)OCCCCCCCCCCCCNC(=O)[C@@H]1CN(C(=O)c2ccc(C(=O)N3C[C@@H](C(=O)N[C@H]4C[C@@H]4c4ccccc4)[C@H](C(=O)N[C@H]4C[C@@H]4c4ccccc4)C3)cc2)C[C@H]1C(=O)N[C@H]1C[C@@H]1c1ccccc1 [Compound 37, 12-((3S,4S)-1-(4-((3S,4S)-3,4-Bis(((1S,2R)-2-phenyl-cyclopropyl)carbamoyl)pyrrolidine-1-carbonyl)benzoyl)-4-(((1S,2R)-2-phenylcyclopropyl)carbamoyl)pyrrolidine-3-carboxamido)-dodecyl 2-(((2,2,2-trichloroethoxy)-carbonyl)amino)acetate] |  |  | 100% | 300% |  |  | 0.27 nM | 3.4 nM
13 | O=C(CNC(=O)OCC1c2ccccc2-c2ccccc21)OCCCCCCCCCCCCNC(=O)[C@@H]1CN(C(=O)c2ccc(C(=O)N3C[C@@H](C(=O)N[C@H]4C[C@@H]4c4ccccc4)[C@H](C(=O)N[C@H]4C[C@@H]4c4ccccc4)C3)cc2)C[C@H]1C(=O)N[C@H]1C[C@@H]1c1ccccc1 [Compound 38, 12-((3S,4S)-1-(4-((3S,4S)-3,4-Bis(((1S,2R)-2-phenyl-cyclopropyl)carbamoyl)pyrrolidine-1-carbonyl)benzoyl)-4-(((1S,2R)-2-phenylcyclopropyl)carbamoyl)pyrrolidine-3-carboxamido)-dodecyl 2-((((9H-fluoren-9-yl)methoxy)carbonyl)amino)acetate] |  |  | 100% | 170% |  |  | 56 nM | 375 nM
14 | COC(=O)NCC(=O)OCCCCCCCCCCCCNC(=O)[C@@H]1CN(C(=O)c2ccc(C(=O)N3C[C@@H](C(=O)N[C@H]4C[C@@H]4c4ccccc4)[C@H](C(=O)N[C@H]4C[C@@H]4c4ccccc4)C3)cc2)C[C@H]1C(=O)N[C@H]1C[C@@H]1c1ccccc1 [Compound 39, 12-((3S,4S)-1-(4-((3S,4S)-3,4-Bis(((1S,2R)-2-phenylcyclopropyl)carbamoyl)pyrrolidine-1-carbonyl)benzoyl)-4-(((1S,2R)-2-phenylcyclopropyl)-carbamoyl)pyrrolidine-3-carboxamido)-dodecyl 2-((methoxycarbonyl)amino)acetate] |  |  | 100% | 120% |  |  | 0.38 nM | 6 nM
